In US11918620B2, “Traditional Chinese medicine composition, and preparation method therefor and application thereof” (Suzhou Regen-PharmaTech Co., Ltd., priority 2020, dated 2024):

Tested on: rats with hybrid hyperlipidemia
Assay: Blood lipids in hybrid hyperlipidemia rat model
Type: in vivo, SD rat
Settings: 3.3 mg/kg, compared with the modeling control group, at each time point
Method: Grouping: After quarantine, the animals were randomized into a negative control group of 10 animals and modeling groups of the rest. After the modeling groups were given modeling feed for 2 weeks, the animals were anesthetized by isoflurane inhalation without fasting. The blood was collected from orbital venous sinus and was centrifuged at 3000 rpm for 10 min to separate the serum. The total cholesterol (TC), triglyceride (TG), low-density lipoprotein cholesterol (LDL-C) and high-density lipoprotein cholesterol (HDL-C) levels were determined. Animals with lower TG levels were eliminated. […]
2.8.1 High-fat and high-cholesterol modeling feed: A maintenance feed containing 20.0% of sucrose, 5% of lard, 1.0% of cholesterol, 0.1% of sodium cholate, appropriate amounts of casein, calcium bicarbonate, powdered stone and the like. Other than crude fat, in the modeling feed, moisture, crude protein, crude fat, crude fiber, crude ash, calcium, phosphorus and calcium:phosphorus all satisfied the national standard for maintenance feed. The feed was provided by Guangdong Medical Laboratory Animal Center. […]
2.8.6.3 Blood lipids: After 2, 4, 7 and 9 weeks of treatment (d14, d28, d52 and d65), the animals were anesthetized by isoflurane inhalation without fasting. […] The TC, TG, LDL-C and HDL-C levels were determined. […]

With `CC(C)c1c(C(=O)Nc2ccccc2)c(-c2ccccc2)c(-c2ccc(F)cc2)n1CC[C@@H](O)C[C@@H](O)CC(=O)O` [atorvastatin calcium tablet, atorvastatin calcium] the “effect on reducing blood lipids (summary)” value was “no significant effect on reducing the blood lipids”.
